From patent publication US20120052057A9, “METHOD FOR SELECTING RESPONDERS TO BLOCKADE OF INTEGRIN RECEPTORS” (priority 2007, published 2012)
“Also recorded” adds a separate entry of the source.

What was measured:
[1] = biological target: T1, α2 integrin over expressing CHO cell clone (CHO-α2) (Homo sapiens, UniProt P17301); assay: Binding of C^14-labeled integrin inhibitor to CHO-α2 cells; settings: for binding of labeled compound in the presence of EDTA: CHO-α2 cells, 20 mM EDTA, 10 μM compound
T1 construct: expressed in transfected cells; host or cells: CHO cell clone over-expressing α2 integrin (CHO-α2)
T1 sequence (P17301 30-1181): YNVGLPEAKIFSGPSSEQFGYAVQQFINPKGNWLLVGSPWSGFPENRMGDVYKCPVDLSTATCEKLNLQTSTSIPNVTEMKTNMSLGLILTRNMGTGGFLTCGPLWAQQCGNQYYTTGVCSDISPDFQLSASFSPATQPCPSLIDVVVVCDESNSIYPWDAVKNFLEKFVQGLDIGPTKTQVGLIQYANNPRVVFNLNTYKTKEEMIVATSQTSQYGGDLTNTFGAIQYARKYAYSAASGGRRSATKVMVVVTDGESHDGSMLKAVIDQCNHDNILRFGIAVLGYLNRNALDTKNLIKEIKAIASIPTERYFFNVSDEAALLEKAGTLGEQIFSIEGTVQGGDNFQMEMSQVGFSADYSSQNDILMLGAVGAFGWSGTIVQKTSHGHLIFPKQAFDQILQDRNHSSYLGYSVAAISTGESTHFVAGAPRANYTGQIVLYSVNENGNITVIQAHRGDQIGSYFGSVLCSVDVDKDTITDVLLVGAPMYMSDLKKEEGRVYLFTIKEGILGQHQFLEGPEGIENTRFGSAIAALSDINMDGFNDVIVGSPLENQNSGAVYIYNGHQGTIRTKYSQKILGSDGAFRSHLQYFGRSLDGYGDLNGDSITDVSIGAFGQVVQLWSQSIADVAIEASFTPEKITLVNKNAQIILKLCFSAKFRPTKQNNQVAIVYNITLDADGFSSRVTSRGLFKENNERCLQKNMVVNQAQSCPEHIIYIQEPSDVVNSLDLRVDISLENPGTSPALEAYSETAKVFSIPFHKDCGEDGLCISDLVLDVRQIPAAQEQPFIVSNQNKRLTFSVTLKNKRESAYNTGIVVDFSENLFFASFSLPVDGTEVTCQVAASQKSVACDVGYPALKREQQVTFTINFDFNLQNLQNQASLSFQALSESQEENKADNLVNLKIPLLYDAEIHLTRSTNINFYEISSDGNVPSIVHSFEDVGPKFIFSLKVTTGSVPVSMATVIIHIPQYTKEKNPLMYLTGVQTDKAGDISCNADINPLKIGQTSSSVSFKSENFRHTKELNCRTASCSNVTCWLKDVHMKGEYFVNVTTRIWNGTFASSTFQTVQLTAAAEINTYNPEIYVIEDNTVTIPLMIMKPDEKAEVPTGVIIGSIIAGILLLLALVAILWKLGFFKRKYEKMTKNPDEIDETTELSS
T1 sequence (P05556 21-798 partner): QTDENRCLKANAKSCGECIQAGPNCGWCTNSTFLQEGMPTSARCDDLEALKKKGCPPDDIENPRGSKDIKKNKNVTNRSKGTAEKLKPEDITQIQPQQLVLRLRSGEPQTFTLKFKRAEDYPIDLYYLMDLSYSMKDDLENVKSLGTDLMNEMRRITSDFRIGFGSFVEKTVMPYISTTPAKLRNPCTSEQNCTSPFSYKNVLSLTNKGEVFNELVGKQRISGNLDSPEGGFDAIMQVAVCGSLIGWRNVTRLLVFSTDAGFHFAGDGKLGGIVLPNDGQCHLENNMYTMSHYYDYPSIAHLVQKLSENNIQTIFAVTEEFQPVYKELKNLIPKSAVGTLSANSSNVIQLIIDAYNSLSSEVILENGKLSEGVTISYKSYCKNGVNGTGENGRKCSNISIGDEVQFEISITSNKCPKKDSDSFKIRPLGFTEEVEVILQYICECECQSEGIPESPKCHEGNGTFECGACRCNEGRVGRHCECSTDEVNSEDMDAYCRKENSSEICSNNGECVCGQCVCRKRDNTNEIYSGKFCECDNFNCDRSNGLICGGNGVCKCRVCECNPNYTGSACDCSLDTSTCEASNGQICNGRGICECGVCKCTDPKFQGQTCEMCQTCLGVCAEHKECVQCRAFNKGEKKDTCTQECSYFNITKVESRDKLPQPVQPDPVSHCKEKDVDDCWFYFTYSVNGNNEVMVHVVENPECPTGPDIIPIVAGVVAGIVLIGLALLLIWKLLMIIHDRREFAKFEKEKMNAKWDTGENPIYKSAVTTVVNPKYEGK
Description: (§1) The binding of C^14-labeled integrin inhibitory compound, hydrochloride salt of [4-(dimethylamino)phenyl]{[3-(4-fluorophenyl)phenyl]-sulfonyl}methylamine, was studied with CHO-wt cells and α2 integrin over expressing CHO cell clone (CHO-α2). CHO-wt cells have no collagen receptor integrins on their cell surface. Cells were fixed in 2% formaldehyde in PBS. After that cells were washed and suspended in reaction buffer (50 mM Tris-HCl pH 7.4, 5 mM MgCl2). To all samples 10 μM C^14-labeled inhibitory compound was added and the cells were incubated in the presence or absence of 20 mM EDTA for 1 h in +4° C. 20000 cells from each sample were loaded to GF/B glass microfibre filter (Whatman) and the samples were washed with 10 mL of the reaction buffer. The membranes were put to scintillation buffer (Optiphase HiSafe3, Perkin Elmer) and the activity was measured with the scintillation counter (Wallac 1415).

[2] = system: CHO-wt cells; assay: Binding of C^14-labeled integrin inhibitor to CHO-wt cells; settings: 20 mM EDTA, 10 μM compound, listed as C^u-labeled integrin inhibitor
Description: as §1

[3] = biological target: T2, α2β1 integrin receptors (Homo sapiens, UniProt P05556+P17301); assay: PFA-100 platelet function analysis, whole blood closure time; assay type: cell-based; settings: Collagen/ADP cartridges, vs untreated control
T2 construct: endogenous in cells; host or cells: platelets in anticoagulated whole blood of healthy donors
T2 sequence (P17301 30-1181): as the sequence (P17301 30-1181) above
T2 sequence (P05556 21-798): as the sequence (P05556 21-798 partner) above
Description: The responsiveness of the genotyped healthy volunteers to a treatment involving the blockade of α2β1 integrin receptors was assessed by measuring the effect of synthetic α2β1 integrin inhibitors, such as sulphonamide derivatives disclosed e.g. in WO 2005/090298, on whole blood closure time in PFA-100 platelet function analysis. The PFA-100 analyzer is a high shear-inducing device that simulates primary haemostasis after injury of a small vessel. The system comprises a test-cartridge containing a biologically active membrane coated with collagen plus adenosine diphosphate (ADP). An anticoaculated whole blood sample is run through a capillary under a constant vacuum. […] Synthetic α2β1 integrin inhibitor was added to the whole blood sample obtained from each healthy volunteer, and the closure time was measured with PFA-100. […]
The effect of a synthetic α2β1 integrin inhibitor, sodium salt of 4-({[3-(4-fluorophenyl)phenyl]sulfonyl}amino)phenyl phenyl ketone (BTT-3016), on whole blood closure time in PFA-100 analysis was determined for donors representing each genotypic population. […] Samples were incubated at room temperature for 10 min., dispensed into PFA Collagen/ADP cartridges, and closure time was determined with PFA-100 (Dade Behring).

| binding of labeled compound in the presence of EDTA [1] | binding of labeled compound in the presence of EDTA ([1]; listed as C^u-labeled integrin inhibitor) | SMILES | binding of labeled compound to cells ([1]; 10 μM C^14-labeled compound, 1 h, +4° C, CHO-α2 compared with CHO-wt) | binding of labeled compound in the presence of EDTA [2] | effect on whole blood closure time ([3]; donors with high α2β1 expression (MEF≧35), genotype TT807 or CT807) | effect on whole blood closure time ([3]; donors with low integrin expression, genotype CC807) |
| --- | --- | --- | --- | --- | --- | --- |
| could be inhibited | EDTA inhibits the binding | CN(C)c1ccc(NCS(=O)(=O)c2cccc(-c3ccc(F)cc3)c2)cc1 [[4-(dimethylamino)phenyl]{[3-(4-fluorophenyl)phenyl]-sulfonyl}methylamine] | bound more efficiently to CHO-α2 cells than to CHO-wt cells | not to CHO-wild type (wt) cells |  |  |
|  |  | O=C(c1ccccc1)c1ccc(NS(=O)(=O)c2cccc(-c3ccc(F)cc3)c2)cc1 [BTT-3016, 4-({[3-(4-fluorophenyl)phenyl]sulfonyl}amino)phenyl phenyl ketone] |  |  | increases the blood closure time; also recorded: increase the closure time statistically significantly | non-responsive; also recorded: not efficacious |
